Assay results reported in PubChem BioAssay AID262 (DTP/NCI, 2004).
Values joined by “and” are separate entries in the source; they are usually repeats but may differ in a detail not shown here. Equal entries are not always repeated.

Tested on: LX-1 lung xenograft sc, nude mice, tumor weight
Assay: NCI In Vivo Anticancer Drug Screen. Data for tumor model Human Lung LX-1 Xenograft (subcutaneous) in NU/NU Swiss (nude) mice
Settings: endpoint: optimum tumor weight change, higher = larger tumour
Experimental: The antitumor activity of compounds was measured in mice bearing transplantable tumors. Survival or tumor size were measured and the results are expressed as the measurement made in the treated group (T) divided by the measurement made in the vehicle treated control group (C). The tumor model used in this assay is Human Lung LX-1 Xenograft (subcutaneous) in NU/NU Swiss (nude) mice

[1] = dose: 25.0 mg/kg/injection, schedule: Q04DX003 (ip), vehicle: saline with Tween-80
[2] = dose: 50.0 mg/kg/injection, schedule: Q04DX003 (ip), vehicle: saline with Tween-80
[3] = dose: 100.0 mg/kg/injection, schedule: Q04DX003 (ip), vehicle: saline with Tween-80
[4] = dose: 50.0 mg/kg/injection, schedule: Q04DX003 (ip), vehicle: Klucel (hydroxypropylcellulose) (HPC)
[5] = dose: 50.0 mg/kg/injection, schedule: Q04DX003 (ip), vehicle: water
[6] = dose: 200.0 mg/kg/injection, schedule: Q04DX003 (ip), vehicle: Klucel (hydroxypropylcellulose) (HPC)
[7] = dose: 400.0 mg/kg/injection, schedule: Q04DX003 (ip), vehicle: Klucel (hydroxypropylcellulose) (HPC)
[8] = dose: 6.25 mg/kg/injection, schedule: Q04DX003 (ip), vehicle: saline
[9] = dose: 12.5 mg/kg/injection, schedule: Q04DX003 (ip), vehicle: saline
[10] = dose: 25.0 mg/kg/injection, schedule: Q04DX003 (ip), vehicle: saline
[11] = dose: 100.0 mg/kg/injection, schedule: Q04DX003 (ip), vehicle: water
[12] = dose: 100.0 mg/kg/injection, schedule: Q04DX003 (ip), vehicle: saline
[13] = dose: 200.0 mg/kg/injection, schedule: Q04DX003 (ip), vehicle: saline
[14] = dose: 400.0 mg/kg/injection, schedule: Q04DX003 (ip), vehicle: saline
[15] = dose: 200.0 mg/kg/injection, schedule: Q04DX003 (ip), vehicle: suspension in saline
[16] = dose: 400.0 mg/kg/injection, schedule: Q04DX003 (ip), vehicle: suspension in saline
[17] = dose: 12.5 mg/kg/injection, schedule: Q04DX003 (ip), vehicle: saline with Tween-80
[18] = dose: 6.0 mg/kg/injection, schedule: Q04DX003 (ip), vehicle: saline with Tween-80
[19] = dose: 4.0 mg/kg/injection, schedule: Q04DX003 (ip), vehicle: saline
[20] = dose: 16.0 mg/kg/injection, schedule: Q04DX003 (ip), vehicle: saline
[21] = dose: 50.0 mg/kg/injection, schedule: Q04DX003 (ip), vehicle: saline
[22] = dose: 30.0 mg/kg/injection, schedule: Q04DX003 (ip), vehicle: saline

CCN(CC)CCCC(C)Nc1c2ccc(Cl)cc2nc2ccc(OC)cc12 (stereo not drawn)
T/C [1]: 119 % of control
T/C [2]: 99 % of control
T/C [3]: 108 % of control

CCOC(=O)C1C2OC(=O)C(C(=O)C2CN(CCCl)CCCl)C1C1CC=C(CC2=CCC(C3C4C(=O)OC(C(CN(CCCl)CCCl)C4=O)C3C(=O)OCC)CC2)CC1 (stereo not drawn)
T/C (dose: 25.0 mg/kg/injection, schedule: Q04DX003 (ip), vehicle: Klucel (hydroxypropylcellulose) (HPC)): 58 % of control
T/C [4]: 64 % of control
T/C (dose: 100.0 mg/kg/injection, schedule: Q04DX003 (ip), vehicle: Klucel (hydroxypropylcellulose) (HPC)): 55 % of control

COc1cccc2c1C(=O)c1c(O)c3c(c(O)c1C2=O)C[C@@](O)(C(=O)CO)C[C@@H]3OC1CC(N)C(OC)C(C)O1 (stereo partly drawn)
T/C (dose: 0.4 mg/kg/injection, schedule: Q04DX003 (ip), vehicle: saline): 84 % of control
T/C (dose: 0.79 mg/kg/injection, schedule: Q04DX003 (ip), vehicle: saline): 106 % of control
T/C (dose: 1.57 mg/kg/injection, schedule: Q04DX003 (ip), vehicle: saline): 40 % of control

CN1N=C(N)c2cn(C3OC(COP(=O)(O)O)C(O)C3O)c3ncnc1c23 (stereo not drawn)
T/C [5]: 86 % of control

O=c1[nH]cnc2n[nH]nc12
T/C [6]: 111 % of control
T/C [7]: 59 % of control
T/C (dose: 800.0 mg/kg/injection, schedule: Q04DX003 (ip), vehicle: Klucel (hydroxypropylcellulose) (HPC)): 94 % of control

CN1CCN(CCCN2c3ccccc3Sc3ccc(C(F)(F)F)cc32)CC1
T/C [8]: 63 % of control
T/C [9]: 78 % of control
T/C [10]: 84 % of control

CN(C)N=Nc1cn[nH]c1C(N)=O
T/C [4]: 2 % of control
T/C [6]: 53 % of control
T/C [7]: -43 % of control

ClCC[N+]12CC[N+](CCCl)(CC1)C2
T/C [5]: 81 % of control
T/C [3]: 103 % of control
T/C [11]: 106 % of control
T/C (dose: 200.0 mg/kg/injection, schedule: Q04DX003 (ip), vehicle: saline with Tween-80): 72 % of control
T/C (dose: 200.0 mg/kg/injection, schedule: Q04DX003 (ip), vehicle: water): 59 % of control
T/C (dose: 400.0 mg/kg/injection, schedule: Q04DX003 (ip), vehicle: saline with Tween-80): 74 % of control
T/C (dose: 400.0 mg/kg/injection, schedule: Q04DX003 (ip), vehicle: water): 48 % of control

N=c1nc2n(cc1F)[C@@H]1O[C@H](CO)[C@@H](O)[C@@H]1O2
T/C [12]: 67 % of control
T/C [13]: 59 % of control
T/C [14]: 78 % of control
T/C (dose: 800.0 mg/kg/injection, schedule: Q04DX003 (ip), vehicle: saline): 72 % of control

CCC[CH2][Sn]1([CH2]CCC)[O]C2C(CO)OC(n3ccc(N)nc3=O)C2[O]1 (stereo not drawn)
T/C (dose: 3.13 mg/kg/injection, schedule: Q04DX003 (ip), vehicle: Klucel (hydroxypropylcellulose) (HPC)): 107 % of control and 108 % of control
T/C (dose: 6.25 mg/kg/injection, schedule: Q04DX003 (ip), vehicle: Klucel (hydroxypropylcellulose) (HPC)): 197 % of control
T/C (dose: 12.5 mg/kg/injection, schedule: Q04DX003 (ip), vehicle: Klucel (hydroxypropylcellulose) (HPC)): 77 % of control

CN(N=O)C(=O)N[C@@H](C=O)[C@@H](O)[C@H](O)[C@H](O)CO
T/C [12]: 150 % of control
T/C [13]: 64 % of control

CC1CCC(NC(=O)N(CCCl)N=O)CC1 (stereo not drawn)
T/C (dose: 5.0 mg/kg/injection, schedule: Q04DX003 (ip), vehicle: Klucel (hydroxypropylcellulose) (HPC)): 73 % of control
T/C (dose: 10.0 mg/kg/injection, schedule: Q04DX003 (ip), vehicle: Klucel (hydroxypropylcellulose) (HPC)): 32 % of control

N[C@H](C(=O)O)[C@@H]1CC(Cl)=NO1
T/C (dose: 8.0 mg/kg/injection, schedule: Q01DX009 (ip), vehicle: saline): 31 % of control
T/C (dose: 16.0 mg/kg/injection, schedule: Q01DX009 (ip), vehicle: saline): 17 % of control
T/C (dose: 32.0 mg/kg/injection, schedule: Q01DX009 (ip), vehicle: saline): 24 % of control
T/C (dose: 100.0 mg/kg/injection, schedule: Q04DX003 (ip), vehicle: suspension in saline): 36 % of control
T/C [15]: 27 % of control
T/C [14]: 6 % of control
T/C [16]: 15 % of control

O=C/C(Cl)=C(/Cl)C(=O)O
T/C (dose: 3.13 mg/kg/injection, schedule: Q04DX003 (ip), vehicle: saline with Tween-80): 112 % of control
T/C (dose: 6.25 mg/kg/injection, schedule: Q04DX003 (ip), vehicle: saline with Tween-80): 84 % of control
T/C [17]: 71 % of control

C=CC(=O)N1CN(C(=O)C=C)CN(C(=O)C=C)C1
T/C (dose: 1.5 mg/kg/injection, schedule: Q04DX003 (ip), vehicle: saline with Tween-80): 89 % of control
T/C (dose: 3.0 mg/kg/injection, schedule: Q04DX003 (ip), vehicle: saline with Tween-80): 62 % of control
T/C [18]: 80 % of control

CC[C@](O)(C(=O)O)c1cc2n(c(=O)c1CO)Cc1cc3ccccc3nc1-2
T/C (dose: 1.0 mg/kg/injection, schedule: Q04DX003 (ip), vehicle: saline): 40 % of control
T/C [19]: 26 % of control and 40 % of control
T/C (dose: 8.0 mg/kg/injection, schedule: Q04DX003 (ip), vehicle: saline): 32 % of control and 35 % of control
T/C [20]: 29 % of control

Nc1cc2[nH]cnc2c(=O)[nH]1
T/C [21]: 96 % of control
T/C [12]: 123 % of control
T/C [13]: 112 % of control

CCCC(=O)OCc1cc(=O)n(C)c2c3c4c(cc12)c(C)cc(=O)n4CO3
T/C [4]: 116 % of control

C=C(C)[C@H]1Cc2c(ccc3c2O[C@@H]2COc4cc(OC)c(OC)cc4[C@@H]2C3=O)O1
T/C (dose: 3.13 mg/kg/injection, schedule: Q04DX003 (ip), vehicle: saline): 106 % of control
T/C [8]: 73 % of control
T/C [9]: 91 % of control
T/C [10]: 102 % of control

NC(=O)c1ccc[n+](Cc2c(Cl)cccc2Cl)c1
T/C (dose: 24.0 mg/kg/injection, schedule: Q04DX003 (ip), vehicle: saline): 47 % of control
T/C (dose: 48.0 mg/kg/injection, schedule: Q04DX003 (ip), vehicle: saline): 68 % of control

Cc1c(CNc2ccc(C(=O)NC(CC(=O)O)C(=O)O)cc2)ccc2nc(N)nc(N)c12 (stereo not drawn)
T/C [18]: 63 % of control
T/C (dose: 12.0 mg/kg/injection, schedule: Q04DX003 (ip), vehicle: saline with Tween-80): 94 % of control
T/C (dose: 24.0 mg/kg/injection, schedule: Q04DX003 (ip), vehicle: saline with Tween-80): 81 % of control

Cn1cnc([N+](=O)[O-])c1[Se]c1nc(N)nc2nc[nH]c12
T/C (dose: 25.0 mg/kg/injection, schedule: Q04DX003 (ip), vehicle: water): 77 % of control
T/C [5]: 54 % of control
T/C [11]: 49 % of control

Cc1c(N)nc(C(CC(N)=O)NCC(N)C(N)=O)nc1C(=O)NC(C(=O)NC(C)C(O)C(C)C(=O)NC(C(=O)NCCc1nc(-c2nc(C(=O)NCCCNC(C)c3ccccc3)cs2)cs1)C(C)O)C(OC1OC(CO)C(O)C(O)C1OC1OC(CO)C(O)C(OC(N)=O)C1O)c1cnc[nH]1 (stereo not drawn)
T/C (dose: 15.0 mg/kg/injection, schedule: Q04DX003 (ip), vehicle: saline): 35 % of control
T/C [22]: 35 % of control

O=Cc1ccc(O)c(O)c1
T/C [17]: 91 % of control
T/C [1]: 107 % of control
T/C [2]: 114 % of control

Oc1ccc(O)cc1
T/C [21]: 201 % of control

Cc1c(N)nc([C@H](CC(N)=O)NC[C@H](N)C(N)=O)nc1C(=O)N[C@H](C(=O)N[C@H](C)[C@@H](O)[C@H](C)C(=O)N[C@H](C(=O)NCCc1nc(-c2nc(C(=O)NCCC[S+](C)C)cs2)cs1)[C@@H](C)O)C(OC1OC(CO)C(O)C(O)C1OC1OC(CO)C(O)C(OC(N)=O)C1O)c1cnc[nH]1 (stereo partly drawn)
T/C (dose: 3.75 mg/kg/injection, schedule: Q04DX003 (ip), vehicle: saline): 45 % of control
T/C [19]: 70 % of control
T/C [20]: 49 % of control and 56 % of control and 63 % of control
T/C [22]: 33 % of control and 55 % of control
T/C (dose: 60.0 mg/kg/injection, schedule: Q04DX003 (ip), vehicle: saline): 8 % of control and 21 % of control

CC(=O)OCC1OC(n2ccc(N)nc2=O)C(OC(C)=O)C1OC(C)=O (stereo not drawn)
T/C [15]: 102 % of control
T/C [16]: 78 % of control
